Laboratory results published in patent US9393316B2, “Cancer targeting peptides for enhancing anti-cancer drug delivery and therapeutic efficiencies” (priority 2014, dated 2016).

Key:
[1] = test system: HCT116 xenografts; assay: In vivo peptide competitive inhibition of phage tumor homing; design: species or system mice; conditions: co-injected with corresponding phage clone
Description: (§1) Non-obese diabetic-severe combined immunodeficiency (NOD/SCID) mice were injected subcutaneously (s.c.) into the dorsolateral flank with 5×10^6 HCT116 cells. When the xenograft tumor size reached 300±50 mm^3, the mice were injected intravascularly (i.v.) with 2×10^11 pfu of the targeting phage or control phage M13KO7. Seven min after injection, the mice were sacrificed and perfused through the heart with 50 mL of PBS to wash unbound phages. After perfusion, xenograft tumor and mouse organs were taken out, washed three times with cold PBS, and cut into pans, with some of them homogenized. The phages bound to each tissue sample were recovered by log-phase Escherichia coli ER2738 culture and were titered on LB/IPTG/X-Gal agar plates. In peptide competitive inhibition experiments, 2×10^9 pfu of phage was co-injected with 100 μg of corresponding peptide or an unrelated control peptide.
The tumor-homing ability of HCT63, HCT69 and HCT74 phages were further confirmed by peptide competitive inhibition experiment. Mice bearing HCT116 xenografts were co-injected with HCT63, HCT69 and HCT74 phages clones and the homologous cognate synthetic peptide; pHCT63, pHCT69 and pHCT74 peptides (SEQ ID NOs: 1-3, respectively), respectively.

[2] = test system: HCT116 cells; assay: ELISA screening of phage clones on HCT116 cells (cellular ELISA); type: binding, human; conditions: HCT116, cell line panel
Description: (§2) The selected phages were further identified by ELISA screening. 1×10^4 cells were seeded into each well of 96-well ELISA plates (Falcon, Calif., USA) overnight and were fixed with 2% paraformaldehyde or methanol/acetone (1:1) for 10 min at RT. The plates were washed twice with PBS and were blocked with 1% BSA in PBS (w/v) for 30 min at RT. Then individual phage clones were added and incubated for 1 hr at RT. Following washing three times with PBS, the plates were incubated with horseradish peroxidase (HRP)-conjugated mouse anti-M13 phage antibody (GE Healthcare) at 1:2000 dilution for 1 hr at RT. The plates were washed three times with PBS again, and were subsequently incubated with the peroxidase substrate o-phenylenediamine dihydrochloride (OPD; Sigma) plus H2O2. The reaction was terminated by 3 N HCl, and the absorbance was measured using microplate reader (Model 680, BioRad) at 490 nm.

[3] = test system: B16-F10; assay: Cellular ELISA of phage clones; type: binding, mouse
Description: as §2, with “nm. To evaluate the binding activities of the three selected phage clones to various human cancer cell lines, cellular ELISA was performed to detect sixteen types of human cancer cell lines, including A498, HTB-10, B16-F10, SKOV3, PC-3, U2OS, 1112SK, […], SAS, H460, MIA Paca-2, HCT116, HUVAC, CL1-5, Mahlavu, and MDA-MB-231.” for “nm.”

[4] = test system: peripheral blood mononuclear cells (PBMC); assay: Flow cytometry binding of phage clones to normal cells; conditions: human PBMC
Description: (§3) Cells were grown to 70-80% confluence and were harvested with 10 mM EDTA in PBS. Peripheral blood mononuclear cells were prepared by using Ficoll-Paque Plus density gradient separation. After washing and suspending the cells with FACS buffer (PBS containing 1% fetal bovine serum), the cells were incubated for 1 hr at 4° C. with 5×10^9, 1×10^9 cfu individual phage clones or control phage, respectively. After washing twice with FACS buffer, cells were incubated with mouse anti-M13 monoclonal antibody (GE Healthcare) at 1:2000 dilution for 1 hr followed by 30 min with phycoerythrin (PE)-conjugated goat anti-mouse secondary antibody (Jackson ImmunoResearch) at 1:250 dilution at 4° C. The emission fluorescence signals were measured using FACSCantoll (Becton Dickinson) and were analyzed by FlowJo software.

[5] = test system: HCT116 xenografts; assay: In vivo tumor homing, phage titer in tumor and organs; design: species or system mice; conditions: 2×10^11 pfu i.v., PBS perfusion; vs brain, lungs, heart
Description: as §1
To investigate the targeting ability of the selected phage clones in vivo, mice bearing HCT116 xenografts (300 mm^3) were injected with 2×10^11 pfu of either the selected phages or control phage through the tail vein. Phages were circulated and then were perfused with PBS buffer to wash out non-specific binders in circulation. After perfusion, we recovered and determined the […] of phage in tumor masses and normal organs.

[6] = test system: SAS; assay: Cellular ELISA of phage clones; type: binding, human
Description: as §2, with “nm. To evaluate the binding activities of the three selected phage clones to various human cancer cell lines, cellular ELISA was performed to detect sixteen types of human cancer cell lines, including A498, HTB-10, B16-F10, SKOV3, PC-3, U2OS, 1112SK, […], SAS, H460, MIA Paca-2, HCT116, HUVAC, CL1-5, Mahlavu, and MDA-MB-231.” for “nm.”

[7] = test system: PC-3; assay: Cellular ELISA of phage clones; type: binding, human
Description: as §2, with “nm. To evaluate the binding activities of the three selected phage clones to various human cancer cell lines, cellular ELISA was performed to detect sixteen types of human cancer cell lines, including A498, HTB-10, B16-F10, SKOV3, PC-3, U2OS, 1112SK, […], SAS, H460, MIA Paca-2, HCT116, HUVAC, CL1-5, Mahlavu, and MDA-MB-231.” for “nm.”

[8] = test system: CL1-5; assay: Cellular ELISA of phage clones; type: binding, human
Description: as §2, with “nm. To evaluate the binding activities of the three selected phage clones to various human cancer cell lines, cellular ELISA was performed to detect sixteen types of human cancer cell lines, including A498, HTB-10, B16-F10, SKOV3, PC-3, U2OS, 1112SK, […], SAS, H460, MIA Paca-2, HCT116, HUVAC, CL1-5, Mahlavu, and MDA-MB-231.” for “nm.”

[9] = test system: Mahlavu; assay: Cellular ELISA of phage clones; type: binding, human
Description: as §2, with “nm. To evaluate the binding activities of the three selected phage clones to various human cancer cell lines, cellular ELISA was performed to detect sixteen types of human cancer cell lines, including A498, HTB-10, B16-F10, SKOV3, PC-3, U2OS, 1112SK, […], SAS, H460, MIA Paca-2, HCT116, HUVAC, CL1-5, Mahlavu, and MDA-MB-231.” for “nm.”

[10] = test system: H460; assay: Cellular ELISA of phage clones; type: binding, human
Description: as §2, with “nm. To evaluate the binding activities of the three selected phage clones to various human cancer cell lines, cellular ELISA was performed to detect sixteen types of human cancer cell lines, including A498, HTB-10, B16-F10, SKOV3, PC-3, U2OS, 1112SK, […], SAS, H460, MIA Paca-2, HCT116, HUVAC, CL1-5, Mahlavu, and MDA-MB-231.” for “nm.”

[11] = test system: HTB-10; assay: Cellular ELISA of phage clones; type: binding, human
Description: as §2, with “nm. To evaluate the binding activities of the three selected phage clones to various human cancer cell lines, cellular ELISA was performed to detect sixteen types of human cancer cell lines, including A498, HTB-10, B16-F10, SKOV3, PC-3, U2OS, 1112SK, […], SAS, H460, MIA Paca-2, HCT116, HUVAC, CL1-5, Mahlavu, and MDA-MB-231.” for “nm.”

[12] = test system: HUVAC; assay: Cellular ELISA of phage clones; type: binding, human
Description: as §2, with “nm. To evaluate the binding activities of the three selected phage clones to various human cancer cell lines, cellular ELISA was performed to detect sixteen types of human cancer cell lines, including A498, HTB-10, B16-F10, SKOV3, PC-3, U2OS, 1112SK, […], SAS, H460, MIA Paca-2, HCT116, HUVAC, CL1-5, Mahlavu, and MDA-MB-231.” for “nm.”

[13] = test system: H184; assay: Cellular ELISA of phage clones; type: binding, human
Description: as §2, with “nm. To evaluate the binding activities of the three selected phage clones to various human cancer cell lines, cellular ELISA was performed to detect sixteen types of human cancer cell lines, including A498, HTB-10, B16-F10, SKOV3, PC-3, U2OS, 1112SK, […], SAS, H460, MIA Paca-2, HCT116, HUVAC, CL1-5, Mahlavu, and MDA-MB-231.” for “nm.”

[14] = test system: A498; assay: Cellular ELISA of phage clones; type: binding, human
Description: as §2, with “nm. To evaluate the binding activities of the three selected phage clones to various human cancer cell lines, cellular ELISA was performed to detect sixteen types of human cancer cell lines, including A498, HTB-10, B16-F10, SKOV3, PC-3, U2OS, 1112SK, […], SAS, H460, MIA Paca-2, HCT116, HUVAC, CL1-5, Mahlavu, and MDA-MB-231.” for “nm.”

[15] = test system: U2OS; assay: Cellular ELISA of phage clones; type: binding, human
Description: as §2, with “nm. To evaluate the binding activities of the three selected phage clones to various human cancer cell lines, cellular ELISA was performed to detect sixteen types of human cancer cell lines, including A498, HTB-10, B16-F10, SKOV3, PC-3, U2OS, 1112SK, […], SAS, H460, MIA Paca-2, HCT116, HUVAC, CL1-5, Mahlavu, and MDA-MB-231.” for “nm.”

[16] = test system: 1112SK; assay: Cellular ELISA of phage clones; type: binding, human
Description: as §2, with “nm. To evaluate the binding activities of the three selected phage clones to various human cancer cell lines, cellular ELISA was performed to detect sixteen types of human cancer cell lines, including A498, HTB-10, B16-F10, SKOV3, PC-3, U2OS, 1112SK, […], SAS, H460, MIA Paca-2, HCT116, HUVAC, CL1-5, Mahlavu, and MDA-MB-231.” for “nm.”

[17] = test system: SKOV3; assay: Cellular ELISA of phage clones; type: binding, human
Description: as §2, with “nm. To evaluate the binding activities of the three selected phage clones to various human cancer cell lines, cellular ELISA was performed to detect sixteen types of human cancer cell lines, including A498, HTB-10, B16-F10, SKOV3, PC-3, U2OS, 1112SK, […], SAS, H460, MIA Paca-2, HCT116, HUVAC, CL1-5, Mahlavu, and MDA-MB-231.” for “nm.”

[18] = test system: MIA Paca-2; assay: Cellular ELISA of phage clones; type: binding, human
Description: as §2, with “nm. To evaluate the binding activities of the three selected phage clones to various human cancer cell lines, cellular ELISA was performed to detect sixteen types of human cancer cell lines, including A498, HTB-10, B16-F10, SKOV3, PC-3, U2OS, 1112SK, […], SAS, H460, MIA Paca-2, HCT116, HUVAC, CL1-5, Mahlavu, and MDA-MB-231.” for “nm.”

[19] = test system: MDA-MB-231; assay: Cellular ELISA of phage clones; type: binding, human
Description: as §2, with “nm. To evaluate the binding activities of the three selected phage clones to various human cancer cell lines, cellular ELISA was performed to detect sixteen types of human cancer cell lines, including A498, HTB-10, B16-F10, SKOV3, PC-3, U2OS, 1112SK, […], SAS, H460, MIA Paca-2, HCT116, HUVAC, CL1-5, Mahlavu, and MDA-MB-231.” for “nm.”

[20] = test system: HT29; assay: Flow cytometry surface binding of phage clones; design: species or system human
Description: as §3

[21] = test system: SW620; assay: Flow cytometry surface binding of phage clones; design: species or system human
Description: as §3

[22] = test system: COLO205; assay: Flow cytometry surface binding of phage clones; design: species or system human
Description: as §3

[23] = test system: LS174T; assay: Flow cytometry surface binding of phage clones; design: species or system human
Description: as §3

[24] = test system: HCT116 cells; assay: Flow cytometry surface binding of phage clones; design: species or system human
Description: as §3

[25] = test system: HCT116 xenografts; assay: Immunohistochemical localization of phages in xenograft tumor and organs; type: in vivo, mice; conditions: tumor vs brain, heart, lungs, colon
Description: The tissue samples from in vivo phage homing experiment were embedded in frozen blocks. To evaluate the phage distribution in each tissue by immunohistochemistry, the frozen specimens were cut to 8-μm-thick sections and were collected on coated slides. The slides were washed with cold PBS to remove OCT and were fixed with 4% paraformaldehyde for 10 min at RT. To block endogenous peroxidase activity, the slides were soaked with 3% hydrogen peroxide in methanol for 30 min at RT. The nonspecific antibody binding sites were blocked by immersing the section with 1% BSA in PBS for 30 min at RT. The tissue sections were incubated with mouse anti-M13 monoclonal antibody at 1:250 dilution for 1 hr, followed by adding Super Enhancer reagent (Super SENSITIVE™ Polymer HRP Detection System/DAB, BioGenex) for 20 min and Poly-HRP reagent (BioGenex) for 30 min. After washing, the sections were developed with DAB (3,3′-diaminobenzidine) Chromogen (BioGenex) supplemented with Stable DAB buffer. The reaction was stopped by adding PBS. For nuclei staining, the slides were immersed in hematoxylin for 5 min, and were then mounted with mounting solution to terminate the reaction. The images of sections were taken and analyzed using automated acquisition system (TissueGnostics).

SSMDIVLRAPLM (HCT-74) [pHCT74]
inhibition of phage recovery from tumor tissue by cognate peptide [1]: markedly inhibited the recovery of phage particles from tumor tissue

TSVSIVSTVLTP (HCT-69) [pHCT69]
inhibition of phage recovery from tumor tissue by cognate peptide [1]: markedly inhibited the recovery of phage particles from tumor tissue

TSVSIVSTVLTP [HCT69]
binding by cellular ELISA [2]: highly specific binding
binding by cellular ELISA [3]: highly specific binding
binding activity to PBMC (normal cells) by FACS [4]: not to normal cells
phage accumulation in tumor mass vs normal organs (phage titer) [5]: significantly accumulated in the tumor mass
binding by cellular ELISA [6]: highly specific binding
binding by cellular ELISA [7]: highly specific binding
binding by cellular ELISA [8]: moderate binding
binding by cellular ELISA [9]: highly specific binding
binding by cellular ELISA [10]: highly specific binding
binding by cellular ELISA [11]: moderate binding
binding by cellular ELISA [12]: highly specific binding
binding by cellular ELISA [13]: highly specific binding
binding by cellular ELISA [14]: highly specific binding
binding by cellular ELISA [15]: highly specific binding
binding by cellular ELISA [16]: highly specific binding
binding by cellular ELISA [17]: highly specific binding
binding by cellular ELISA [18]: highly specific binding
binding by cellular ELISA [19]: highly specific binding
binding activity by FACS [20]: high binding affinity
binding activity by FACS [21]: high binding affinity
binding activity by FACS [22]: weak affinity
binding activity by FACS [23]: moderate affinity
cell surface-binding activity by flow cytometry [24]: high binding affinity
phage localization by immunostaining of tissue sections [25]: selectively localized in tumor tissues
phage localization by immunostaining of tissue sections ([25]; listed as HCT-69): strong accumulated in the tumor
